Results: patent US20180311217A1, “METHODS OF TREATMENT AND COMPOSITIONS WITH XANTHINE OXIDASE INHIBITORS” (Takeda Pharmaceuticals U.S.A., Inc., priority 2013, published 2018)
Marks after values point to notes of the source that are not given here.

Tested on: hyperuricemic gout subjects with moderate to severe renal impairment
Experiment: Example 1 study: subjects experiencing gout flares
Assay type: in vivo, human
Procedure: All subjects received colchicine 0.6 mg every other day (QOD) from the initial screening visit through the Month 6 visit only. Alternatively, if colchicine was not tolerated by the subject, prednisone may have been provided at the investigator's discretion in accordance with the stated guidelines listed under Prohibited Concomitant Medications.
All subjects were instructed to take colchicine 0.6 mg QOD for prophylaxis. Colchicine began at the Screening Day −21 visit for all subjects. Subjects received colchicine 0.6 mg QOD through the Month 6 visit.
Subjects were assessed for gout flares from the time the ICF was signed and throughout the duration of the study. Subjects were instructed to call the Investigator as soon as they thought they were having a gout flare. The Gout Flare Assessment Worksheet was completed by the site personnel (ie, study coordinator, study nurse, or the investigator).
Subjects were instructed to report the following information: the onset and end date of the flare, the kind of prophylaxis medication they were taking at the time of the event, whether or not the attack required medication (including type) and dates of treatment, the location of the flare, signs and symptoms regarding the flare including the severity, subjects' pain intensity (pain in rest), and the assessment of current gout flare compared to all previous gout flares in any joints. In addition, the subjects were asked an exploratory question in nature: the subject was asked during their current gout attack to indicate the degree of which the subject's physical mobility had been limited (on a scale of 0-10). The investigator reviewed the information provided and assessed whether or not they believed the subject experienced a gout flare and/or documented an alternative etiology.
Summary statistics for the number and percentage of subjects experiencing a gout flare were summarized by treatment group within the following intervals: Day 1 to Month 2 (Day 1 to 60), Month 2 to 4 (Day 61 to 120), Month 4 to 6 (Day 121 to 180), Month 6 to 8 (Day 181 to 240), Month 8 to 10 (Day 241 to 300), Month 10 to 12 (>day 301, and overall Day 1 to Month 6, and Month 6 to Month 12. All gout flares with onset after Day 301 (including those reported <30 days since last dose) were included in the Month 10 to 12 interval.

Cc1nc(-c2ccc(OCC(C)C)c(C#N)c2)sc1C(=O)O [Febuxostat, 2-[3-cyano-4-(2-methylpropoxy)phenyl]-4-methylthiazole-5-carboxylic acid]
Percentage of Subjects With Gout Flares (30 mg BID, 2 to ≤4 months): (10.7) %
Percentage of Subjects With Gout Flares (30 mg BID, 4 to ≤6 months): (14.3) %
Percentage of Subjects With Gout Flares (30 mg BID, 4 to ≤6 months, listed as febuxostat): 14.3%
Percentage of Subjects With Gout Flares (30 mg BID, 6 to ≤8 months (after prophylaxis ended)): (26.3) %
Percentage of Subjects With Gout Flares (30 mg BID, 6 to ≤8 months (after prophylaxis ended), listed as febuxostat): 26.3%
Percentage of Subjects With Gout Flares (30 mg BID, 8 to ≤10 months): (5.9) %
Percentage of Subjects With Gout Flares (30 mg BID, 10 to ≤12 months): (11.8) %
Percentage of Subjects With Gout Flares (30 mg BID, Day 1 to Month 6): (28.1)* %
Percentage of Subjects With Gout Flares (30 mg BID, Day 1 to Month 6, listed as febuxostat): 28.1%
Percentage of Subjects With Gout Flares (30 mg BID, Month 6 to Month 12): (31.6)* %
Percentage of Subjects With Gout Flares (30 mg BID, Month 6 to Month 12, listed as febuxostat): 31.6%
Percentage of Subjects With Gout Flares (30 mg BID, ≤2 months): (18.8)* %
Increase of percentage of subjects with at least one gout flare, months 6 to ≤8 relative to months 4 through 6 (30 mg IR BID): 84%
Increase of percentage of subjects with at least one gout flare, months 6 to ≤8 relative to months 4 through 6 (40/80 mg IR QD): 279%
Percentage of Subjects With Gout Flares (40/80 mg QD, 2 to ≤4 months): (27.6) %
Percentage of Subjects With Gout Flares (40/80 mg QD, 4 to ≤6 months): (17.9) %
Percentage of Subjects With Gout Flares (40/80 mg QD, 4 to ≤6 months, listed as febuxostat): 17.9%
Percentage of Subjects With Gout Flares (40/80 mg QD, 6 to ≤8 months (after prophylaxis ended)): (50.0) %
Percentage of Subjects With Gout Flares (40/80 mg QD, 6 to ≤8 months (after prophylaxis ended), listed as febuxostat): 50.0%
Percentage of Subjects With Gout Flares (40/80 mg QD, 8 to ≤10 months): (22.2) %
Percentage of Subjects With Gout Flares (40/80 mg QD, 10 to ≤12 months): (23.1) %
Percentage of Subjects With Gout Flares (40/80 mg QD, Day 1 to Month 6): (56.3) %
Percentage of Subjects With Gout Flares (40/80 mg QD, Day 1 to Month 6, listed as febuxostat): 56.3%
Percentage of Subjects With Gout Flares (40/80 mg QD, Month 6 to Month 12): (64.3) %
Percentage of Subjects With Gout Flares (40/80 mg QD, Month 6 to Month 12, listed as febuxostat): 64.3%
Percentage of Subjects With Gout Flares (40/80 mg QD, ≤2 months): (50.0) %
